# Active and inactive are the calls of the source.
# Assays:
# [1] = biological target: T1, Apoptotic protease-activating factor 1 (Homo sapiens, UniProt O14727); assay type: functional
# T1 sequence (O14727 whole entry): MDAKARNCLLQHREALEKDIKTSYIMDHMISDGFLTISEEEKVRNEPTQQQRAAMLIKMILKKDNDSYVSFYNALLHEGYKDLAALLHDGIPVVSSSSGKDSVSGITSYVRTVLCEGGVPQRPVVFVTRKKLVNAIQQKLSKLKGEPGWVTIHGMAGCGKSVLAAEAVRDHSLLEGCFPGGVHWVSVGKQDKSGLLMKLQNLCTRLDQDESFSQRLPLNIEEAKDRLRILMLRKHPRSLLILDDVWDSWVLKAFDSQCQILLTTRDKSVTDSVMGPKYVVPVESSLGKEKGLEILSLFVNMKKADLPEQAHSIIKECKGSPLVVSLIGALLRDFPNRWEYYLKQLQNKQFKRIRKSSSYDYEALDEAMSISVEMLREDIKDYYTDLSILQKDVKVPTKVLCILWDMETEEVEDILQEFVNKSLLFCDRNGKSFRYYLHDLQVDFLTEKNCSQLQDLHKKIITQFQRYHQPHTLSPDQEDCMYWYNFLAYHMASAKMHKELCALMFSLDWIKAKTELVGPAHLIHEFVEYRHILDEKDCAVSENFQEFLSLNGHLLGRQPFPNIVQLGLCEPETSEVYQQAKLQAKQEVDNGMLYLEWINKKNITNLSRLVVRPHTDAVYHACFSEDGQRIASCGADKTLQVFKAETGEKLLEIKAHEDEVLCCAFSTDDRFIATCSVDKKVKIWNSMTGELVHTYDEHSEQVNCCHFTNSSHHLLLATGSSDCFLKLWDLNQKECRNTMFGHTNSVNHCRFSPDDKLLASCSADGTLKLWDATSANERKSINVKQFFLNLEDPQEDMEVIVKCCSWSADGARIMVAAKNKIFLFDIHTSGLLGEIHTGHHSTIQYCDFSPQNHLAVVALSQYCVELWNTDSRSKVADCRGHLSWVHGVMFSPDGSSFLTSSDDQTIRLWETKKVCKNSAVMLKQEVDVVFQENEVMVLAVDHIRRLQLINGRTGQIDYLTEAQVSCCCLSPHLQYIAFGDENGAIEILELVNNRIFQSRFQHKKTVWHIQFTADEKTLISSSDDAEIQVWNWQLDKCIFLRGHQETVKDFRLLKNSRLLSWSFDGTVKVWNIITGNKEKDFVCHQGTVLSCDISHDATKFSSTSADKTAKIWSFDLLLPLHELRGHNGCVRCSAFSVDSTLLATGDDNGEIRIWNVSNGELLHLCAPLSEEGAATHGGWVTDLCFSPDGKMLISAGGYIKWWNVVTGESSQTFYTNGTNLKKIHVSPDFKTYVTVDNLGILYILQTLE
# [2] = IC50 of Artemis nuclease activity blockers – biochemical, fluorescence intensity, dose response (AID 720701); assay type: functional;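 note: Artemis endonuclease enzyme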
# [3] = luciferase reporter signal suppression in cells – H4 neuroglioma cells, luminescence, dose response (AID 1990); assay type: functional, cell-based
# [4] = Luminescence Cell-Based Dose Response HTS to Identify Inhibitors of 5'UTR Stem-Loop Driven Prion Protein mRNA Translation in H4 Neuroglioblastoma Cells. [Related pubchem assays: 1827 (Project Summary), 1813 (Primary HTS)]; assay type: functional
# [5] = biological target: T2, Sentrin-specific protease 8 (Homo sapiens, UniProt Q96LD8); assay type: functional
# T2 sequence (Q96LD8 whole entry): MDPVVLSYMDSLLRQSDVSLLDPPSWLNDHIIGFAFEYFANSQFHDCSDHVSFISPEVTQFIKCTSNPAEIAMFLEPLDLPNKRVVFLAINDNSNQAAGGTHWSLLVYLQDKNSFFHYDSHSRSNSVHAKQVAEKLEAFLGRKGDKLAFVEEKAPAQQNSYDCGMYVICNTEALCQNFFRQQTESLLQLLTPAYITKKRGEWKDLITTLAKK
# [6] = biological target: T3, Voltage-gated N-type calcium channel alpha-1B subunit/Amyloid beta A4 precursor protein-binding family A member 1 (Homo sapiens, UniProt Q00975+Q02410); assay type: protein assay
# [7] = biological target: T3, Voltage-gated N-type calcium channel alpha-1B subunit/Amyloid beta A4 precursor protein-binding family A member 1; assay type: protein assay; remark: listed apart in the source
# [8] = alpha-synuclein stem-loop luciferase translation blockers – H4 neuroglioma cells, luminescence, confirmation (AID 1988); assay type: functional, cell-based
# [9] = biological target: T2, Sentrin-specific protease 8; assay type: functional; remark: listed apart in the source
# [10] = off-target signal loss in HeLa-CEM21 co-culture – HeLa F-luc CTL cells, cherry-picked, counter-screen for HIV-1 Env fusion inhibitor project, dose response (AID 652040); assay type: functional, cell-based;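 note: potency for signal decrease marking cytotoxic or nonspecific inhibition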
# [11] = blockers of HIV-1 envelope-mediated cell-cell fusion – cherry-pick, dose response (AID 652057); assay type: functional, cell-based
# HeLa = assay: viability loss in HeLa cells – cell-based, ATP luminescence, cherry-pick samples, cytotoxicity control, dose response (AID 687004); assay type: functional; details: Homo sapiens
# [12] = biological target: 72 kDa type IV collagenase (Homo sapiens, UniProt P08253); assay: Dose Response validation of uHTS RPN11 inhibitor hits using a MMP-2 Fluorescence assay.; assay type: functional
# Prothrombin = Prothrombin (Bos taurus, UniProt P00735); assay: thrombin protease inhibitors – biochemical, fluorescence polarization, uHTS hits, dose response (AID 602369); assay type: functional
# [13] = biological target: 26S proteasome non-ATPase regulatory subunit 14 (Homo sapiens, UniProt O00487); assay: inhibition of proteasome subunit RPN11 – biochemical, fluorescence polarization, uHTS hits, confirmation (AID 602368); assay type: functional
# [14] = biological target: NAD-dependent protein deacylase sirtuin-5, mitochondrial (Homo sapiens, UniProt Q9NXA8); assay: sirtuin-5 deacylation blockers, concentration series – biochemical, fluorescence imaging, cherry-pick, set 5, dose response (AID 720591);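 note: desuccinylation of succinyl peptide AMC substrate read as fluorescence after trypsin release; potency of inhibitors that lower fluorescence and may act on trypsin instead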
# [15] = biological target: T4, Heat shock factor protein 1 (Mus musculus, UniProt P38532); assay: enhancement of HSF1-driven luciferase signal – cell-based, NIH3T3, luminescence, dose retest, confirmation (AID 435004); assay type: functional;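 note: stress induced by proteasome inhibitor MG132 added 30 min after compound; luciferase reporter driven by HSF1 response element in NIH3T3 cells; actives raise luminescence as potentiators of the MG132 stress response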
# T4 sequence (P38532 whole entry): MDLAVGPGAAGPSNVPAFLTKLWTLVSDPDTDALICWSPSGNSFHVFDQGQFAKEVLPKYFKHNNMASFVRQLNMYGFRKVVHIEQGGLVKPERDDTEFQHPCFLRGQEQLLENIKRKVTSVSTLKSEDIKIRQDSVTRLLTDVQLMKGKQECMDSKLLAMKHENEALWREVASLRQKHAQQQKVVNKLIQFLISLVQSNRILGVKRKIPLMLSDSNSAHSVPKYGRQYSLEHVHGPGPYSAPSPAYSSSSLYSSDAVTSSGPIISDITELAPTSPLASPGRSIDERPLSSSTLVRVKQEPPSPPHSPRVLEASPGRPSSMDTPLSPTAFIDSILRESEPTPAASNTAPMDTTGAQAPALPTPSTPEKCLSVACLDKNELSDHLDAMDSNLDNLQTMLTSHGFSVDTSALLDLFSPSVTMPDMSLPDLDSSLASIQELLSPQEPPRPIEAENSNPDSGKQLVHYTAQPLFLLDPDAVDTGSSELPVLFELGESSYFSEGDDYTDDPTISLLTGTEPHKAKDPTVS
# [16] = HEK293 Cytotoxicity Assay Measured in Cell-Based System Using Plate Reader - 7071-01_Inhibitor_Dose_CherryPick_Activity_Set2.; assay type: functional
# HEK293 [17] = assay: viability loss in HEK293T cells – cell-based, ATP luminescence, cherry-pick samples, cytotoxicity control, dose response (AID 687005); assay type: functional; details: Homo sapiens;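 note: cells exposed to compound for 48 hours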
# [18] = biological target: 5-hydroxytryptamine receptor 2A (Mus musculus, UniProt P35363); assay type: functional, cell-based;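 note: CHO-K1 cells with tagged receptor and beta-arrestin; agonist potency measured as compound-induced activation of the receptor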
# Mu-type opioid receptor = Mu-type opioid receptor (Homo sapiens, UniProt P35372); assay type: functional, cell-based;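 note: U2OS cells with beta-arrestin recruitment to OPRM1 by beta-gal complementation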
# Streptococcus = assay: GAS UMAA2166 growth inhibition – luminescence, BacTiterGlo, counter-screen for streptokinase expression inhibitor project, dose response (AID 1915); assay type: functional, organism-based;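 note: potency for reduction of bacterial viability or growth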
# [19] = Luminescence Cell-Based Dose Retest to Confirm Inhibitors of Cancer Stem Cells. [Related pubchem assays (depositor defined):AID2717, AID2721]; assay type: functional, Homo sapiens; details: Homo sapiens
# [20] = system: Streptococcus sp. 'group A'; assay: Streptococcus pyogenes SK(-)GAS viability under kanamycin – luminescence, BacTiterGlo, confirmation, counter-screen for streptokinase expression inhibitor project, dose response (AID 1900); assay type: functional, organism-based
# [21] = A549 cell cytotoxicity, dose response, cytotoxicity control, plate reader, cherry-pick, antagonist series (AID 743412); assay type: functional, cell-based
# [22] = blockade of melanocortin 4 receptor signaling – cell-based, plate reader, cherry pick, counter-screen for LGR2 antagonist project, dose response (AID 743444); assay type: functional;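 note: transfected HEK 293 cells stimulated with alpha-MSH peptide; potency of inhibitors of the alpha-MSH evoked signal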
# [23] = viability loss in HEK293 cells – cell-based, plate reader, cherry-picked samples, cytotoxicity control, dose response (AID 743446); assay type: functional
# [24] = blockers of HIV-1 ZM109 envelope-driven cell-cell fusion – HeLa effector, CEM target cells, luciferase, cherry-pick, dose response (AID 652058); assay type: functional, cell-based;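 note: luciferase signal from HIV-1 Env mediated cell-cell fusion of effector and target cells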
# [25] = HIV-1 AD8 envelope cell-cell fusion blockers – cherry-pick, dose response (AID 652062); assay type: functional, cell-based;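 note: luciferase signal from cell-cell fusion driven by HIV-1 clade B AD8 Env; potency is for inhibitors of fusion seen as a drop in luminescence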
# [26] = blockers of bursicon-stimulated LGR2 cAMP reporter – cell-based, HEK293, CRE-luciferase reporter, cherry pick, set 2, dose response (AID 743343); assay type: functional;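 note: transfected cells were stimulated with diluted bursicon conditioned medium after compound addition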
# HEK293 [27] = assay: EBV LMP1 TES2 canonical NF-kB signalling blockers – cell-based, HEK293, luciferase, cherry-pick, dose response (AID 588343); assay type: functional; details: Homo sapiens
# 5-hydroxytryptamine receptor 2A, sequence (P35363 whole entry): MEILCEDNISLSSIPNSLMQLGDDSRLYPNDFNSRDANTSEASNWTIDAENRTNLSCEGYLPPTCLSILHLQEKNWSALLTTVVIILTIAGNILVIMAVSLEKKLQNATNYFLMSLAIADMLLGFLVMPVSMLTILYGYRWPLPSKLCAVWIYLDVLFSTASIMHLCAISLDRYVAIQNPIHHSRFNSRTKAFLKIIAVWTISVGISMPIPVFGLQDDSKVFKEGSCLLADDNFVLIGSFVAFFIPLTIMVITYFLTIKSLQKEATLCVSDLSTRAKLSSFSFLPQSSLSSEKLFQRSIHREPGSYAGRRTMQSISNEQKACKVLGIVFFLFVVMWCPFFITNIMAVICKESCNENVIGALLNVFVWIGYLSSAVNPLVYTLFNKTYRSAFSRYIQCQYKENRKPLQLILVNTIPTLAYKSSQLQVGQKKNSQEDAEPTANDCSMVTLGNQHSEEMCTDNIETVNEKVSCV
# Mu-type opioid receptor, sequence (P35372 whole entry): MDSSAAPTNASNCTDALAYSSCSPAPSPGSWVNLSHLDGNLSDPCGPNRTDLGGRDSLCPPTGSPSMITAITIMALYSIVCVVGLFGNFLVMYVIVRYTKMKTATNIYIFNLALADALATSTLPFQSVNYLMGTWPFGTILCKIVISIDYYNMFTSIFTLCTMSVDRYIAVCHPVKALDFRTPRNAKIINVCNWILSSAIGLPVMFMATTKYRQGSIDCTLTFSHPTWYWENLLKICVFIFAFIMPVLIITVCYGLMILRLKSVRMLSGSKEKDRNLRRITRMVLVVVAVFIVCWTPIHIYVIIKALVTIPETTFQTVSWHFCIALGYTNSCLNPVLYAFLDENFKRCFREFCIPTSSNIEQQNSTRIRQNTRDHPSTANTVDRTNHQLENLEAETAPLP
# 26S proteasome non-ATPase regulatory subunit 14, sequence (O00487 whole entry): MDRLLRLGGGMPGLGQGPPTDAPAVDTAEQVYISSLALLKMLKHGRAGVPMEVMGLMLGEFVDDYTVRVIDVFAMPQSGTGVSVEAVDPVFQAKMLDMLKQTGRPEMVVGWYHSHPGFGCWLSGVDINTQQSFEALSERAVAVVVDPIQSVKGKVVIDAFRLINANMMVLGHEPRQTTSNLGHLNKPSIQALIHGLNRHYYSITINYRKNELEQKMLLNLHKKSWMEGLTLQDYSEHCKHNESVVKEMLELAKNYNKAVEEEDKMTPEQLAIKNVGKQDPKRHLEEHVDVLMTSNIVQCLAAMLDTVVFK
# T3 sequence (Q00975 whole entry): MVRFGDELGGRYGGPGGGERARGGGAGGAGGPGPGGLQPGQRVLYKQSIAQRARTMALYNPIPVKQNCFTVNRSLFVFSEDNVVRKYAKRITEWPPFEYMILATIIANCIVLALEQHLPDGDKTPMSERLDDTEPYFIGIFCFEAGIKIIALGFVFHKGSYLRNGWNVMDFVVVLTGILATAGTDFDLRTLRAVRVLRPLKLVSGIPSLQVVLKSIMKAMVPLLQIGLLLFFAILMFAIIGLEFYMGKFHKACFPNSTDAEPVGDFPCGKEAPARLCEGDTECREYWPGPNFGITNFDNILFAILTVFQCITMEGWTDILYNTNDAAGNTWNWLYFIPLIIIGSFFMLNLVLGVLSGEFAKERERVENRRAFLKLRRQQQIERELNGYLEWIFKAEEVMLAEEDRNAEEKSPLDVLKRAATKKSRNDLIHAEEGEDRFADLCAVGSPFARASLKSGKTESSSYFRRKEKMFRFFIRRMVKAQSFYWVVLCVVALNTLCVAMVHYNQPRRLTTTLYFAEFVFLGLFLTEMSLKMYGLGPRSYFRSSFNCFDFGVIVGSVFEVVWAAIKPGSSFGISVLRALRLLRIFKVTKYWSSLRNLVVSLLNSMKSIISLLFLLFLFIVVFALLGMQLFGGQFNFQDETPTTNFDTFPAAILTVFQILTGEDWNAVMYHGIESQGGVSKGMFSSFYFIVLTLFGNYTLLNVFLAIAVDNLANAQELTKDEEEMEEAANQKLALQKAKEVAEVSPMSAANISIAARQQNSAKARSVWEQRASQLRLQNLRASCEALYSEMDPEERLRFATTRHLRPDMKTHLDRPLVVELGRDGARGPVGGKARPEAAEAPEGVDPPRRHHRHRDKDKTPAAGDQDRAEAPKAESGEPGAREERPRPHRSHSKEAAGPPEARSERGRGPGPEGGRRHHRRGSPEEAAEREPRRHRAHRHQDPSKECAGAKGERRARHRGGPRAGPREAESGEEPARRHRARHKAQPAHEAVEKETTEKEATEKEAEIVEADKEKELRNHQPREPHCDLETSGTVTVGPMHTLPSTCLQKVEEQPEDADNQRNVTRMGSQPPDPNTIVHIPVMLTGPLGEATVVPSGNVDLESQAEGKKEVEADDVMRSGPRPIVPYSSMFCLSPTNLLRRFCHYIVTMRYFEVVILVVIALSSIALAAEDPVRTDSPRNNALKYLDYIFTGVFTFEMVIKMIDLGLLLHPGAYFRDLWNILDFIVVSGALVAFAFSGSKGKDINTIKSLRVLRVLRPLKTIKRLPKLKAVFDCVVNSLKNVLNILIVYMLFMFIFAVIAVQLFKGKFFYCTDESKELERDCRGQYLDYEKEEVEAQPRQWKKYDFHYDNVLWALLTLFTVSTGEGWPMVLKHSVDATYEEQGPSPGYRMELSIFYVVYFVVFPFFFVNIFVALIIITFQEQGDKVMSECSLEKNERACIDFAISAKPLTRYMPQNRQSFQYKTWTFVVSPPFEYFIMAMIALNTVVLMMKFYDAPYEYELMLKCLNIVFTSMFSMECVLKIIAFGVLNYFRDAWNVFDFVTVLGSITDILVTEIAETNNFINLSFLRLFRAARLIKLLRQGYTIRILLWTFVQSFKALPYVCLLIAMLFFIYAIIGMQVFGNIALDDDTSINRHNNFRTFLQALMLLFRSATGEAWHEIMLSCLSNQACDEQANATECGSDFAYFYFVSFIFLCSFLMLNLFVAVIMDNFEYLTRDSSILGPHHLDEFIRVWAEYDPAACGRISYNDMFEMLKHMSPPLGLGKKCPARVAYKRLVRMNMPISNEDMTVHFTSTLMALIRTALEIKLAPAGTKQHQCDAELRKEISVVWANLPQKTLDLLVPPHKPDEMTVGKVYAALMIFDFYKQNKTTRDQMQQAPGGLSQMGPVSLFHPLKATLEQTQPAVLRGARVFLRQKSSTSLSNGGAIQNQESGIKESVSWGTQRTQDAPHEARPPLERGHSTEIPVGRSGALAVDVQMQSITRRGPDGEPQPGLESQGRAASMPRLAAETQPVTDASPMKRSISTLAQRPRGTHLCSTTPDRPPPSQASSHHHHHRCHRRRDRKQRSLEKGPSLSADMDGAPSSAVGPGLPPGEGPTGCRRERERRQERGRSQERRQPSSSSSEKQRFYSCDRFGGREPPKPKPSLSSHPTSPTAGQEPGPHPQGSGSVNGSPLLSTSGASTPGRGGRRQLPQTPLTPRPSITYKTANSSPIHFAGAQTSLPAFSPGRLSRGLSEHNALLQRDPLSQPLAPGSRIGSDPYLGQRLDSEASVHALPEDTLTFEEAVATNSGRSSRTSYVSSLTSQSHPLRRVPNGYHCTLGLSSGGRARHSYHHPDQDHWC
# T3 sequence (Q02410 whole entry): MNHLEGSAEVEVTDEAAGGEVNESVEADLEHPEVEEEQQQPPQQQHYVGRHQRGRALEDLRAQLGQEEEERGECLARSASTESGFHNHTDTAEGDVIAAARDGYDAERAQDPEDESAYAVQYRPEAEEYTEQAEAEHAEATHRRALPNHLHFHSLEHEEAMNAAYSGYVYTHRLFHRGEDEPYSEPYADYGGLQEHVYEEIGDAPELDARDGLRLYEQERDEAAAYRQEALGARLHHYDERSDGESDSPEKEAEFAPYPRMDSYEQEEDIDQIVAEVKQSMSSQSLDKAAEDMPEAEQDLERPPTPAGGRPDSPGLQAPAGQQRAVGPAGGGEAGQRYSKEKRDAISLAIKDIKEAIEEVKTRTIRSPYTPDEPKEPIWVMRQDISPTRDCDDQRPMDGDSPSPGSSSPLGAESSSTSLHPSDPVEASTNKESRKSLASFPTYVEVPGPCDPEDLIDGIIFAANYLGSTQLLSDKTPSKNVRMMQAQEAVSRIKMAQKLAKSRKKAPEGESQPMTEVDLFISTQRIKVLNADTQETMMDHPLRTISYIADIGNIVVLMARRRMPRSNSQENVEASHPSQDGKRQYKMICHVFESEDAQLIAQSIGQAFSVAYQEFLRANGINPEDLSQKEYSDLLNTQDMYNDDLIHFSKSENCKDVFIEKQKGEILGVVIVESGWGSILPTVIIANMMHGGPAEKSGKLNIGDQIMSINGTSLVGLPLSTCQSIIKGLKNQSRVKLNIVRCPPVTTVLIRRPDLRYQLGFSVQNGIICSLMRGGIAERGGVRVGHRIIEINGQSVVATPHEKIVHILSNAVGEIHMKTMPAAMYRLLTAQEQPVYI
# 72 kDa type IV collagenase, sequence (P08253 whole entry): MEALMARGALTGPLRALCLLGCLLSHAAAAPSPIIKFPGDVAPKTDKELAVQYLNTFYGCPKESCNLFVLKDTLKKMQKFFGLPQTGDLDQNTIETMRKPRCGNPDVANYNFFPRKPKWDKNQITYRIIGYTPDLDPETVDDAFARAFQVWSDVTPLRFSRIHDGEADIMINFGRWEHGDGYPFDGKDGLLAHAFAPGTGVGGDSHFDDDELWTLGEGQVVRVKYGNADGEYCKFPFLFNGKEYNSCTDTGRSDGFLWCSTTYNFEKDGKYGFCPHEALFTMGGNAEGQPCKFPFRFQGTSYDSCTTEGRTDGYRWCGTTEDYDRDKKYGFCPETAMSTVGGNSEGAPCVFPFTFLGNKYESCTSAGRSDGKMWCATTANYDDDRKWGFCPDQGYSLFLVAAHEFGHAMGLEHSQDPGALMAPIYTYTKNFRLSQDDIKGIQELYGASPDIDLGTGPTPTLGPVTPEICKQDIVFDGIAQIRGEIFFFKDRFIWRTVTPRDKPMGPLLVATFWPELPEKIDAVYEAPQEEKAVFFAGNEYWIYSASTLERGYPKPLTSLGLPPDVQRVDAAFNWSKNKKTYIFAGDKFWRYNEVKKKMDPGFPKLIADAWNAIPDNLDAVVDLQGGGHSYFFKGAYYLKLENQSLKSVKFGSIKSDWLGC
compound,measurement,setting,value
O=C(Nc1cccc(C(F)(F)F)c1)c1ccc2nc(-c3ccco3)c(-c3ccco3)nc2c1,IC50,[1],43.9 µM (active)
same,IC50,[2],> 20 µM (inactive)
CCOC(=O)c1nn(-c2ccc(C)c(C)c2)c(=O)c2c(N)scc12,EC50,[3],13.8 µM (active)
same,EC50,[4],> 120 µM (not active)
same,IC50,[1],42.2 µM (active)
same,IC50,[5],5.63 µM (active)
same,IC50,[6],> 50 µM (inactive)
same,IC50,[7],9.97 µM (active)
same,EC50,[8],> 120 µM (not active)
same,IC50,[9],5.03 µM (active)
Cc1ccc2c(c1)c1c3n2CCN(CCC#N)C3CCC1 (configuration not stated),AC50,[10],1.89 µM (active)
same,AC50,[11],12.9 µM (active)
C[C@@H]1CN([C@H](C)CO)C(=O)c2cc(NC(=O)Nc3cccc4ccccc34)ccc2O[C@@H]1CN(C)C(=O)Nc1ccccc1,AC50,HeLa,22.8 µM (active)
Cc1[nH]c2ccccc2c1/C=C/C(=O)c1ccncc1,IC50,[12],> 100 µM (inactive)
same,IC50,Prothrombin,48.4 µM (active)
same,IC50,[13],38.8 µM (active)
Cc1c(C(=O)OCC(O)=C(C#N)c2nc3ccccc3[nH]2)oc2ccc(Br)cc12,AC50,[14],> 30 µM (inactive)
CCCCC(=O)Nc1ccc(N2CCCC2)cc1,IC50,[2],> 20 µM (inactive)
CC(=O)C1=C(C)NC2(O)c3ccccc3C(=O)C12O (configuration not stated),IC50,[5],22.4 µM (active)
same,IC50,[9],11.1 µM (active)
same,EC50,[15],> 260 µM (inactive)
O=C(N/N=C/c1cccs1)c1cc(-c2ccc3ccccc3c2)[nH]n1,IC50,[2],> 20 µM (inactive)
CC(C)NC(=O)Nc1ccc2c(c1)C(=O)N([C@@H](C)CO)C[C@@H](C)[C@@H](CN(C)S(=O)(=O)c1ccc(Cl)cc1)OCCCC[C@@H](C)O2,AC50,[16],20.6 µM (active)
same,AC50,HEK293 [17],20.6 µM (active)
CCn1c(N2CCN(S(=O)(=O)c3ccc(OC)cc3)CC2)nc2ccccc21,EC50,[18],30 µM (inactive)
same,EC50,Mu-type opioid receptor,92.5 µM (inactive)
O=C(CSc1nc(O)c2c(C(F)(F)F)cc(-c3cccs3)nc2n1)Nc1ccc(F)c(F)c1,EC50,Streptococcus,2.58 µM (active)
same,IC50,[12],> 100 µM (inactive)
same,IC50,Prothrombin,79.4 µM (active)
same,IC50,[13],42.7 µM (active)
same,AC50,[19],1.27 µM (active)
same,EC50,[20],1.12 µM (active)
COc1ccc(CN2CCN(C(=O)c3ccco3)CC2)cc1OCc1ccccc1,EC50,[18],1.48 µM (active)
same,EC50,Mu-type opioid receptor,92.5 µM (inactive)
Cc1ccc(S(=O)(=O)Nc2ccc3c(c2)CC(=O)N([C@H](C)CO)C[C@H](C)[C@H](CN(C)Cc2ccc(Cl)c(Cl)c2)O3)cc1,AC50,[21],24.7 µM (active)
same,AC50,[22],32.4 µM (active)
same,AC50,[23],> 47 µM (inactive)
COc1ccc2ccccc2c1CN1CCN(C(=O)c2ccco2)CC1,EC50,[18],1.77 µM (active)
same,EC50,Mu-type opioid receptor,92.5 µM (inactive)
O=C(NC12CC3CC(CC(C3)C1)C2)OCCNC1CCCCC1,AC50,[24],6.43 µM (active)
same,AC50,[10],4.34 µM (active)
same,AC50,[25],7.98 µM (active)
same,AC50,[11],2.91 µM (active)
Cc1cc(N2C(=O)Cc3ccccc3C2=O)ccc1C(C)C,IC50,[5],4.5 µM (active)
same,IC50,[9],> 100 µM (inactive)
C/C=C/c1ccc([C@@H]2[C@H]3CN(C(=O)Nc4ccc(OC)cc4)CCCCN3[C@H]2CO)cc1,AC50,[16],24.4 µM (active)
same,AC50,HeLa,> 52 µM (inactive)
same,AC50,HEK293 [17],24.4 µM (active)
O=C(NCCO)Nc1ccc(Cl)cc1,AC50,[14],> 30 µM (inactive)
Cc1ccc(C(=O)Nc2ccc3ncccc3c2)cc1,AC50,[16],20.5 µM (active)
same,AC50,HeLa,> 52 µM (inactive)
same,AC50,[26],1.96 µM (active)
same,AC50,HEK293 [17],20.5 µM (active)
same,AC50,[21],> 52 µM (inactive)
same,AC50,[22],3.88 µM (active)
same,AC50,HEK293 [27],1.6 µM (active)
same,AC50,[23],> 52 µM (inactive)

# From ChEMBL document CHEMBL1201862, “PubChem BioAssay data set” (2004)
